US20250275965A1, “COMPOUNDS AS CASEIN KINASE INHIBITORS” (GRITSCIENCE BIOPHARMACEUTICALS CO.,LTD., priority 2020, published 2025)

Key:
CK1δ = CK1δ (Homo sapiens, UniProt P48730); assay: CK1δ kinase assay (Kinase-Glo); assay type: biochemical; settings: 10 μM ATP, 2 nM wild type kinase, 85 min at 25° C.
Protocol: The reaction mixture was incubated for 85 min at 25° C.; detection was carried out as described for the Kinase-Glo Assay (Promega). Luminescent output was measured on the Perkin Elmer Envision plate reader (PerkinElmer, Waltham, MA).

in vitro = settings: human, Caco-2, pH 7.4
Protocol: 1) 50 μL and 25 mL of cell culture medium were added to each well of the Transwell insert and reservoir, respectively. And then the HTS transwell plates were incubated at 37° C., 5% CO2 for 1 hour before cell seeding.
2) Caco-2 cells were diluted to 6.86×10^5 cells/mL with culture medium and 50 μL of cell suspension were dispensed into the filter well of the 96-well HTS Transwell plate. Cells were cultivated for 14-18 days in a cell culture incubator at 37° C., 5% CO2, 95% relative humidity. Cell culture medium was replaced every other day, beginning no later than 24 hours after initial plating.
10 mM stock solutions of test compounds were prepared in DMSO. The stock solutions of positive controls were prepared in DMSO at the concentration of 10 mM.
1) Medium was removed from the reservoir and each Transwell insert and replaced with prewarmed fresh culture medium.
2) Transepithelial electrical resistance (TEER) across the monolayer was measured using Millicell Epithelial Volt-Ohm measuring system (Millipore, USA).
3) The Plate was returned to the incubator once the measurement was done.
The TEER value was calculated according to the following equation: TEER measurement (ohms)*Area of membrane (cm^2)=TEER value (ohm·cm^2) TEER value should be greater than 230 ohm·cm^2, which indicates the well-qualified Caco-2 monolayer.
1) The Caco-2 plate was removed from the incubator and washed twice with pre-warmed HBSS (10 mM HEPES, pH 7.4), and then incubated at 37° C. for 30 minutes.
2) The stock solutions of control compounds and test compounds were diluted in DMSO to get 1 mM solutions and then diluted with HBSS (10 mM HEPES, pH 7.4) get 5 μM working solutions. The final concentration of DMSO in the incubation system was 0.5%.
3) To determine the rate of drug transport in the apical to basolateral direction. 125 μL of 5 μM working solution of control compound and test compounds were added to the Transwell insert (apical compartment), and transfer 50 μL sample (DO sample) immediately from the apical compartment to a new 96-well plate. Fill the wells in the receiver plate (basolateral compartment) with 235 μL of HBSS (10 mM HEPES, pH 7.4).
4) To determine the rate of drug transport in the basolateral to apical direction. 285 μL of 5 μM working solution of control compound and test compounds were to the receiver plate wells (basolateral compartment), and transfer 50 μL sample (DO sample) immediately from the basolateral compartment to a new 96-well plate. Fill the wells in the Transwell insert (apical compartment) with 75 μL of HBSS (10 mM HEPES, pH 7.4). The assay was performed in duplicate.
5) The plates were incubated at 37° C. for 2 hours.
Samples were Vortexed for 5 minutes and then centrifuged at 3,220 g for 40 minutes. An aliquot of 100 μL of the supernatant was mixed with an appropriate volume of ultra-pure water before LC-MS/MS analysis.
7) To determine the Lucifer Yellow leakage after 2 hour transport period, stock solution of Lucifer yellow was prepared in water and diluted with HBSS (10 mM HEPES, pH 7.4) to reach the final concentration of 100 μM. 100 μL of the Lucifer yellow solution was added to each Transwell insert (apical compartment), followed by filling the wells in the receiver plate (basolateral compartment) with 300 μL of HBSS (10 mM HEPES, pH 7.4). The plates were Incubated at 37° C. for 30 mins. 80 μL samples were removed directly from the apical and basolateral wells (using the basolateral access holes) and transferred to wells of new 96 wells plates. The Lucifer Yellow fluorescence (to monitor monolayer integrity) signal was measured in a fluorescence plate reader at 485 nm excitation and 530 nm emission.
The apparent permeability coefficient (Papp), in units of centimeter per second, can be calculated for Caco-2 drug transport assays using the following equation: […]

[1] = Intrinsic clearance in liver microsomes (human); assay type: in vitro ADME; settings: Human liver microsomes 0.5 mg/mL, 2 μM compound, 37° C.; for microsomal CLint at 2 μM: read-out: in vitro CLint (μL/min/mg protein); for half-life at 2 μM: read-out: in vitro t1/2
Protocol: (§1) 1. The master solution was prepared according to Table 4.
(§2) 2. Three separated experiments were performed as follows. a) With NADPH: 10 μL of 20 mg/mL liver microsomes and 40 μL of 10 mM NADPH were added to the incubations. The final concentrations of microsomes and NADPH were 0.5 mg/mL and 1 mM, respectively. b) Without NADPH: 10 μL of 20 mg/mL liver microsomes and 40 μL of ultra-pure H2O were added to the incubations. The final concentration of microsomes was 0.5 mg/mL. c) Heat-inactivated microsomes without NADPH: 10 μL of 20 mg/mL heat-inactivated liver microsomes and 40 μL of ultra-pure H2O were added to the incubations. The final concentration of microsomes was 0.5 mg/mL.
(§3) 3. The reaction was started with the addition of 4 μL of 200 μM test compound solution or control compound solution at the final concentration of 2 μM and carried out at 37° C.
(§4) 4. Aliquots of 50 μL were taken from the reaction solution at 0, 15, 30, 45 and 60 min. The reaction was stopped by the addition of 4 volumes of cold acetonitrile with IS (100 nM alprazolam, 200 nM labetalol, 200 nM caffeine and 2 μM ketoprofen). Samples were centrifuged at 3, 220 g for 40 minutes.
(§5) All calculations were carried out using Microsoft Excel.
(§6) Peak areas were determined from extracted ion chromatograms. The slope value, k, was determined by linear regression of the natural logarithm of the remaining percentage of the parent drug vs. incubation time curve.
(§7) The in vitro half-life (in vitro t1/2) was determined from the slope value:
(§8) Conversion of the in vitro t1/2 (min) into the in vitro intrinsic clearance (in vitro CLint, in μL/min/mg protein) was done using the following equation (mean of duplicate determinations): […]

[2] = Intrinsic clearance in liver microsomes (mouse); assay type: in vitro ADME; settings: Mouse liver microsomes 0.5 mg/mL, 2 μM compound, 37° C.; for microsomal CLint at 2 μM: read-out: in vitro CLint (μL/min/mg protein); for half-life at 2 μM: read-out: in vitro t1/2
Protocol: as §1, §2, §3, §4, §5, §6, §7, §8

Sequence of CK1δ (P48730 whole entry): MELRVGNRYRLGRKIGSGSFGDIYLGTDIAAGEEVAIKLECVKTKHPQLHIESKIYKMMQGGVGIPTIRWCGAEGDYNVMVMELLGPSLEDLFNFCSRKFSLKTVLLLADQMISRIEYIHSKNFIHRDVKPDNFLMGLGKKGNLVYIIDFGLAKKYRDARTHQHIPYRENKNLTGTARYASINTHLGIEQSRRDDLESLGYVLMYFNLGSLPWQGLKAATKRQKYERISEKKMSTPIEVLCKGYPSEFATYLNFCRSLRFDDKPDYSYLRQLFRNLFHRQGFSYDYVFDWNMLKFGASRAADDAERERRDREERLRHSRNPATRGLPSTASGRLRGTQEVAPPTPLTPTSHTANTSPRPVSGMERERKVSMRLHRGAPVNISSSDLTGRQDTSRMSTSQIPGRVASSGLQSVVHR

Compound	EC50 (CK1δ) [µM]	Papp A→B at 2 h, 5 μM (in vitro) [×10⁻⁶ cm/s]	Papp B→A at 2 h, 5 μM (in vitro) [×10⁻⁶ cm/s]	efflux ratio at 2 h, 5 μM (in vitro)	microsomal CLint at 2 μM [1] [µL/min/mg]	half-life at 2 μM [1] [h]	microsomal CLint at 2 μM [2] [µL/min/mg]	half-life at 2 μM [2] [h]
Cn1cc(-c2ccnc3ccnn23)c(-c2ccc(F)cc2)n1 [Compound I-1, 7-(3-(4-fluorophenyl)-1-methyl-1H-pyrazol-4-yl)pyrazolo[1,5-a]pyrimidine]	15	–	–	–	–	–	–	–
Cn1cc(-c2ccnn3c(N)cnc23)c(-c2ccc(F)cc2)n1 [Compound I-8, 8-(3-(4-fluorophenyl)-1-methyl-1H-pyrazol-4-yl)imidazo[1,2-b]pyridazin-3-amine]	3.3	–	–	–	–	–	–	–
Cn1cc(-c2ccnn3cccc23)c(-c2ccc(F)cc2)n1 [Compound I-9, 4-(3-(4-fluorophenyl)-1-methyl-1H-pyrazol-4-yl)pyrrolo[1,2-b]pyridazine]	2.5	–	–	–	–	–	–	–
COC(=O)c1cn2nccc(-c3cn(C)nc3-c3ccc(F)cc3)c2n1 [Compound I-12, methyl 8-(3-(4-fluorophenyl)-1-methyl-1H-pyrazol-4-yl)imidazo[1,2-b]pyridazine-2-carboxylate]	8.6	–	–	–	–	–	–	–
Cn1cc(-c2ccnn3cc(N)nc23)c(-c2ccc(F)cc2)n1 [Compound I-13, 8-(3-(4-fluorophenyl)-1-methyl-1H-pyrazol-4-yl)imidazo[1,2-b]pyridazin-2-amine]	2.8	–	–	–	–	–	–	–
Cn1cc(-c2ccnn3cc(C(C)(C)O)nc23)c(-c2ccc(F)cc2)n1 [Compound I-17, 2-(8-(3-(4-fluorophenyl)-1-methyl-1H-pyrazol-4-yl)imidazo[1,2-b]pyridazin-2-yl)propan-2-ol]	0.4	25.3	19.4	0.77	3.25	7.11	19.1	1.21
CNc1cn2nccc(-c3cn(C)nc3-c3ccc(F)cc3)c2n1 [Compound I-19, 8-(3-(4-fluorophenyl)-1-methyl-1H-pyrazol-4-yl)-N-methyli-midazo[1,2-b]pyridazin-2-amine]	25	–	–	–	–	–	–	–
CC(=O)Nc1cn2nccc(-c3cn(C)nc3-c3ccc(F)cc3)c2n1 [Compound I-20, N-(8-(3-(4-fluorophenyl)-1-methyl-1H-pyrazol-4-yl)imidazo [1,2-b]pyridazin-2-yl)acetamide]	2.5	–	–	–	–	–	–	–
CC(=O)NCc1cn2nccc(-c3cn(C)nc3-c3ccc(F)cc3)c2n1 [Compound I-21, N-((8-(3-(4-fluorophenyl)-1-methyl-1H-pyrazol-4-yl)imidazo [1,2-b]pyridazin-2-yl)methyl)acetamide]	5.3	–	–	–	–	–	–	–
CNCc1cn2nccc(-c3cn(C)nc3-c3ccc(F)cc3)c2n1 [Compound I-22, 1-(8-(3-(4-fluorophenyl)-1-methyl-1H-pyrazol-4-yl)imidazo[1,2-b]pyridazin-2-yl)-N-methylmethanamine]	0.3	12.7	32.1	2.52	2.64	8.76	18.9	1.22
CC(=O)N1CCn2nc(-c3ccc(F)cc3)c(-c3ccnc4[nH]ccc34)c2C1 [Compound I-24, 1-(2-(4-fluorophenyl)-3-(1H-pyrrolo[2,3-b]pyridin-4-yl)-6,7-dihydropyrazolo[1,5-a]pyrazin-5(4H)-yl)ethan-1-one]	0.8	5.28	18.4	3.49	7.47	3.09	24.7	0.935

The remaining molecules from weak to strong by EC50 (CK1δ), led by results:

EC50 (CK1δ) [µM]	Papp A→B at 2 h, 5 μM (in vitro) [×10⁻⁶ cm/s]	Papp B→A at 2 h, 5 μM (in vitro) [×10⁻⁶ cm/s]	efflux ratio at 2 h, 5 μM (in vitro)	microsomal CLint at 2 μM [1] [µL/min/mg]	half-life at 2 μM [1] [h]	microsomal CLint at 2 μM [2] [µL/min/mg]	half-life at 2 μM [2] [h]	Compound
7.9	–	–	–	–	–	–	–	Cn1cc(-c2ccnn3cnnc23)c(-c2ccc(F)cc2)n1 [Compound I-10, 8-(3-(4-fluorophenyl)-1-methyl-1H-pyrazol-4-yl)-[1,2,4]triazo-lo[4,3-b]pyridazine]
2.7	–	–	–	–	–	–	–	Cc1cn2nccc(-c3cn(C)nc3-c3ccc(F)cc3)c2n1 [Compound I-4, 8-(3-(4-fluorophenyl)-1-methyl-1H-pyrazol-4-yl)-2-methyli-midazo[1,2-b]pyridazine]
0.7	22.4	20.8	0.93	12.5	1.85	66.8	0.346	CNC(=O)c1cn2nccc(-c3cn(C)nc3-c3ccc(F)cc3)c2n1 [Compound I-16, 8-(3-(4-fluorophenyl)-1-methyl-1H-pyrazol-4-yl)-N-methyli-midazo[1,2-b]pyridazine-2-carboxamide]
0.5	24.8	25.2	1.02	–	–	38.8	0.595	Cn1cc(-c2ccnn3cc(C(N)=O)nc23)c(-c2ccc(F)cc2)n1 [Compound I-15, 8-(3-(4-fluorophenyl)-1-methyl-1H-pyrazol-4-yl)imidazo[1,2-b]pyridazine-2-carboxamide]
0.2	13	31.5	2.43	0.93	24.9	5.9	3.92	Cn1cc(-c2ccnn3cc(CN)nc23)c(-c2ccc(F)cc2)n1 [Compound I-14]
